In PubChem BioAssay (NCI):
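Dose response: 5 concentrations. Exposure: 48 h. Format: 96-well plates. Endpoint: linear interpolation; highest concentration if not reached. Here, GI50 denotes the concentration required for 50% inhibition of growth. TGI marks complete inhibition of growth.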

Tests used:
Experiment in all cases: inhibition of tumour cell growth, NCI panel, 48 h
RPMI-8226 leukemia = tested on: RPMI-8226 leukemia
SK-MEL-28 melanoma = tested on: SK-MEL-28 melanoma
CAKI-1 renal = tested on: CAKI-1 renal
NCI-H23 lung = tested on: NCI-H23 lung
MDA-MB-231 breast = tested on: MDA-MB-231 breast
UACC-62 melanoma = tested on: UACC-62 melanoma
NCI-H522 lung = tested on: NCI-H522 lung
SN12C renal = tested on: SN12C renal
UO-31 renal = tested on: UO-31 renal
HS 578T breast = tested on: HS 578T breast
MCF7 breast = tested on: MCF7 breast
SNB-75 CNS = tested on: SNB-75 CNS
PC-3 prostate = tested on: PC-3 prostate
HT29 colon = tested on: HT29 colon
HCC-2998 colon = tested on: HCC-2998 colon
LOX IMVI melanoma = tested on: LOX IMVI melanoma
T-47D breast = tested on: T-47D breast
SNB-19 CNS = tested on: SNB-19 CNS
HCT-116 colon = tested on: HCT-116 colon
HOP-92 NSCLC = tested on: HOP-92 NSCLC
A549 NSCLC = tested on: A549 NSCLC
ACHN renal = tested on: ACHN renal
OVCAR-4 ovarian = tested on: OVCAR-4 ovarian
EKVX NSCLC = tested on: EKVX NSCLC
K-562 leukemia = tested on: K-562 leukemia
OVCAR-8 ovarian = tested on: OVCAR-8 ovarian
BT-549 breast = tested on: BT-549 breast
TK-10 renal = tested on: TK-10 renal
NCI-H226 lung = tested on: NCI-H226 lung
KM12 colon = tested on: KM12 colon
CCRF-CEM leukemia = tested on: CCRF-CEM leukemia
M14 melanoma = tested on: M14 melanoma
IGROV1 ovarian = tested on: IGROV1 ovarian
SK-OV-3 ovarian = tested on: SK-OV-3 ovarian
SW-620 colon = tested on: SW-620 colon
MOLT-4 leukemia = tested on: MOLT-4 leukemia
SF-539 CNS = tested on: SF-539 CNS
HOP-62 NSCLC = tested on: HOP-62 NSCLC
NCI/ADR-RES ovarian = tested on: NCI/ADR-RES ovarian
A498 renal = tested on: A498 renal
OVCAR-3 ovarian = tested on: OVCAR-3 ovarian
DU-145 prostate = tested on: DU-145 prostate
OVCAR-5 ovarian = tested on: OVCAR-5 ovarian
COLO 205 colon = tested on: COLO 205 colon
SF-295 CNS = tested on: SF-295 CNS
786-0 renal = tested on: 786-0 renal
NCI-H460 lung = tested on: NCI-H460 lung
RXF 393 renal = tested on: RXF 393 renal
SF-268 CNS = tested on: SF-268 CNS
U251 CNS = tested on: U251 CNS
UACC-257 melanoma = tested on: UACC-257 melanoma
HL-60(TB) leukemia = tested on: HL-60(TB) leukemia
SK-MEL-5 melanoma = tested on: SK-MEL-5 melanoma
SK-MEL-2 melanoma = tested on: SK-MEL-2 melanoma
MALME-3M melanoma = tested on: MALME-3M melanoma
MDA-MB-435 = tested on: MDA-MB-435
HCT-15 colon = tested on: HCT-15 colon

CCn1c2ccccc2c2cc(/C=C(/C#N)C(N)=S)ccc21
GI50 (RPMI-8226 leukemia): 35.4 µM | TGI (RPMI-8226 leukemia): > 100 µM | GI50 (SK-MEL-28 melanoma): 17.7 µM | TGI (SK-MEL-28 melanoma): 47.2 µM | GI50 (CAKI-1 renal): 1120 nM | TGI (CAKI-1 renal): > 35.4 µM | GI50 (NCI-H23 lung): 14.8 µM | TGI (NCI-H23 lung): 35.4 µM | GI50 (MDA-MB-231 breast): 12.1 µM | TGI (MDA-MB-231 breast): 30.8 µM | GI50 (UACC-62 melanoma): 219 nM | TGI (UACC-62 melanoma): 1510 nM | GI50 (NCI-H522 lung): 26.9 µM | TGI (NCI-H522 lung): > 68.4 µM | GI50 (SN12C renal): 11.8 µM | TGI (SN12C renal): 29.9 µM | GI50 (UO-31 renal): 20.4 µM | TGI (UO-31 renal): > 60.6 µM | GI50 (HS 578T breast): 2210 nM | TGI (HS 578T breast): 9.29 µM | GI50 (MCF7 breast): 271 nM | TGI (MCF7 breast): 17.8 µM | GI50 (SNB-75 CNS): 18.8 µM | TGI (SNB-75 CNS): 46.1 µM | GI50 (PC-3 prostate): 18.3 µM | TGI (PC-3 prostate): > 59.4 µM | GI50 (HT29 colon): 10.9 µM | TGI (HT29 colon): > 42.7 µM | GI50 (HCC-2998 colon): 2880 nM | TGI (HCC-2998 colon): 9 µM | GI50 (LOX IMVI melanoma): 13 µM | TGI (LOX IMVI melanoma): 26.1 µM | GI50 (T-47D breast): 4.84 µM | GI50 (SNB-19 CNS): 35.2 µM | TGI (SNB-19 CNS): > 75.6 µM | GI50 (HCT-116 colon): 5.79 µM | TGI (HCT-116 colon): 20.9 µM | GI50 (HOP-92 NSCLC): 14.6 µM | TGI (HOP-92 NSCLC): 46.9 µM | GI50 (A549 NSCLC): 17.5 µM | TGI (A549 NSCLC): > 87.4 µM | GI50 (ACHN renal): 19.6 µM | TGI (ACHN renal): 64 µM | GI50 (OVCAR-4 ovarian): 1430 nM | TGI (OVCAR-4 ovarian): 9.92 µM | GI50 (EKVX NSCLC): 17.7 µM | TGI (EKVX NSCLC): > 58.4 µM | GI50 (K-562 leukemia): 12.8 µM | TGI (K-562 leukemia): > 100 µM | GI50 (OVCAR-8 ovarian): 20.5 µM | TGI (OVCAR-8 ovarian): 56.4 µM | GI50 (BT-549 breast): 18.6 µM | TGI (BT-549 breast): 36.6 µM | GI50 (TK-10 renal): 216 nM | TGI (TK-10 renal): 1820 nM | TGI (NCI-H226 lung): 23.6 nM | GI50 (KM12 colon): 15.2 µM | TGI (KM12 colon): 38.5 µM | GI50 (CCRF-CEM leukemia): 23.4 µM | TGI (CCRF-CEM leukemia): > 100 µM | GI50 (M14 melanoma): 18.2 µM | TGI (M14 melanoma): 38.8 µM | GI50 (IGROV1 ovarian): 619 nM | TGI (IGROV1 ovarian): 23.2 µM | GI50 (SK-OV-3 ovarian): 36.7 µM | TGI (SK-OV-3 ovarian): > 62.1 µM | GI50 (SW-620 colon): 9.06 µM | TGI (SW-620 colon): 25.1 µM | GI50 (MOLT-4 leukemia): 12.5 µM | TGI (MOLT-4 leukemia): 58.6 µM | GI50 (SF-539 CNS): 14.2 µM | TGI (SF-539 CNS): 27.4 µM | GI50 (HOP-62 NSCLC): 1210 nM | TGI (HOP-62 NSCLC): 17.7 µM | GI50 (NCI/ADR-RES ovarian): 18 µM | TGI (NCI/ADR-RES ovarian): 38.5 µM | GI50 (A498 renal): 26 nM | TGI (A498 renal): 115 nM | GI50 (OVCAR-3 ovarian): 1730 nM | TGI (OVCAR-3 ovarian): 18.2 µM | GI50 (DU-145 prostate): 16.1 µM | TGI (DU-145 prostate): 63.6 µM | GI50 (OVCAR-5 ovarian): 58.1 nM | TGI (OVCAR-5 ovarian): 570 nM | GI50 (COLO 205 colon): 13.2 µM | TGI (COLO 205 colon): > 45.7 µM | GI50 (SF-295 CNS): 4.64 µM | TGI (SF-295 CNS): 24.2 µM | GI50 (786-0 renal): 16.1 µM | TGI (786-0 renal): 39.4 µM | GI50 (NCI-H460 lung): 443 nM | TGI (NCI-H460 lung): 12.2 µM | GI50 (RXF 393 renal): 16.5 µM | TGI (RXF 393 renal): 39 µM | GI50 (SF-268 CNS): 16.3 µM | TGI (SF-268 CNS): 40.6 µM | GI50 (U251 CNS): 4.85 µM | TGI (U251 CNS): 23.5 µM | GI50 (UACC-257 melanoma): 3.11 µM | TGI (UACC-257 melanoma): > 21.4 µM | GI50 (HL-60(TB) leukemia): 74.4 µM | TGI (HL-60(TB) leukemia): > 100 µM | GI50 (SK-MEL-5 melanoma): 7.26 µM | TGI (SK-MEL-5 melanoma): 20.2 µM | GI50 (SK-MEL-2 melanoma): 31.3 µM | TGI (SK-MEL-2 melanoma): > 100 µM | GI50 (MALME-3M melanoma): 6.19 µM | TGI (MALME-3M melanoma): 48.5 µM | GI50 (MDA-MB-435): 6.06 µM | TGI (MDA-MB-435): 29.6 µM | GI50 (HCT-15 colon): 18.7 µM | TGI (HCT-15 colon): 51.6 µM
